Read-outs that look alike come from different tables or passages of the source. Where a SMILES comes first, the peptide text is derived from it. Bridges are numbered along the chain shown (N, C = ends). [ ]: non-standard residue; d: D form. The star is where a group is joined. ξ: configuration not given here. hPhe(3-Cl-4-CF3) = N[C@@H](CCc1ccc(C(F)(F)F)c(Cl)c1)C(=O)O; NPrPhe(4-CF3) = CCCN[C@@H](Cc1ccc(C(F)(F)F)cc1)C(=O)O; 3Oxa8azabicyclo(3.2.1)octane = C1CC2COCC1N2*; NEtPhe(4-Me) = CCN[C@@H](Cc1ccc(C)cc1)C(=O)O; NMeGly(cPent) = CN[C@H](C(=O)O)C1CCCC1; NMeD = CN[C@@H](CC(=O)O)C(=O)O; NMeL = CN[C@@H](CC(C)C)C(=O)O; ξNMeD = CNC(CC(=O)O)C(=O)O; Morpholide = C1CN(*)CCO1; NMeAib = CNC(C)(C)C(=O)O; Nle = CCCC[C@H](N)C(=O)O; Piperidide = C1CCN(*)CC1; Ac5c = NC1(C(=O)O)CCCC1; ξP = O=C(O)C1CCCN1; Sar = CNCC(=O)O
System: human lung cancer strain NCI-H441
[1] = read-out: NCI-H441 IC50, NCI-H441 cells, four days, CellTiter-Glo

SMILES	IC50 [nM]	also measured
CC[C@H](C)[C@@H]1NC(=O)[C@H](CC(C)C)N(C)C(=O)C[C@@H](C(=O)N(C)C)N(CCC2CCCC2)C(=O)[C@H](C2CCCC2)N(C)C(=O)C2(CCCC2)NC(=O)[C@@H]2CCCN2C(=O)[C@H](CCc2ccc(C(F)(F)F)c(Cl)c2)NC(=O)CN(C)C(=O)[C@H](Cc2ccc(F)cc2)N2CCCCC[C@@H](C2=O)N(C)C(=O)CN(C)C1=O [PP0975]	1570	
CCCO[C@@H]1C[C@H]2C(=O)NC3(CC(C)(C)C3)C(=O)N(C)[C@@H](C3CCCC3)C(=O)N(C)[C@H](C(=O)N(C)C)CC(=O)N(C)[C@H]3CCCCc4ccc(cc4)C[C@@H](C(=O)N(C)CC(=O)N[C@@H](CCc4ccc(C(F)(F)F)c(OC)c4)C(=O)N2C1)N1CC/C=C\C[C@@H](C1=O)N(C)C(=O)CN(C1CC1)C(=O)[C@H]([C@@H](C)CC)NC3=O [PP3082]		IC50 (read-out: NCI-H441 cell proliferation inhibitory activity, 50% proliferation inhibitory concentration (IC50 value), NCI-H441, four days, CellTiter-Glo): 1.7 nM
CCO[C@@H]1C[C@H]2C(=O)NC3(CC(C)(C)C3)C(=O)N(C)[C@@H](C(CC)CC)C(=O)N(C)[C@H](C(=O)N3CCCCC3)CC(=O)N(C)[C@H]3CCC/C=C/c4ccc(cc4)C[C@@H](C(=O)N(C)CC(=O)N[C@@H](CCc4ccc(Cl)c(Cl)c4)C(=O)N2C1)N1CC/C=C\C[C@@H](C1=O)N(C)C(=O)CN(C)C(=O)[C@H]([C@@H](C)CC)NC3=O [PP2953]		IC50 [1]: 33.4 nM
CCCN1C(=O)CN(C)C(=O)CN(C)C(=O)[C@H]([C@@H](C)CC)NC(=O)[C@H](CC(C)C)N(C)C(=O)CC(C(=O)N2CCOCC2)N(C)C(=O)[C@H](C2CCCC2)N(C)C(=O)C2(CCCC2)NC(=O)[C@@H]2CCCN2C(=O)[C@H](CCc2ccc(C(F)(F)F)c(Cl)c2)NC(=O)C2CCCN2C(=O)[C@@H]1Cc1ccc(C(F)(F)F)cc1 (stereo partly drawn) [PP0149] ([NMeL]I[Sar][Sar][NPrPhe(4-CF3)][ξP][hPhe(3-Cl-4-CF3)]P[Ac5c][NMeGly(cPent)][ξNMeD]-Morpholide; lactam N-11)	317	
CCO[C@@H]1C[C@H]2C(=O)NC3(CC(C)(C)C3)C(=O)N(C)[C@@H](C(CC)CC)C(=O)N(C)C(CC)CC(=O)N(C)[C@@H](CC)C(=O)N[C@@H]([C@@H](C)CC)C(=O)N(C)CC(=O)N(C)[C@H]3C/C=C\CCN(C3=O)[C@@H](Cc3ccc(C(F)(F)F)cc3)C(=O)N(C)CC(=O)N[C@@H](CCc3cc(F)c(C(F)(F)F)c(F)c3)C(=O)N2C1 (stereo partly drawn) [PP1622]		IC50 (read-out: NCI-H441 IC50, NCI-H441 cell proliferation, 4 days, CellTiter-Glo): 28.1 nM
CC[C@H](C)[C@@H]1NC(=O)[C@H](CC(C)C)N(C)C(=O)C[C@@H](C(=O)N2C3CCC2COC3)N(C)C(=O)[C@H](C2CCCC2)N(C)C(=O)C2(CCCC2)NC(=O)[C@@H]2CCCN2C(=O)[C@H](CCc2ccc(C(F)(F)F)c(Cl)c2)NC(=O)CN(C)C(=O)[C@H](Cc2ccc(C)cc2)N(CC)C(=O)CN(C)C(=O)CN(C)C1=O [PP0051] ([NMeL]I[Sar][Sar][NEtPhe(4-Me)][Sar][hPhe(3-Cl-4-CF3)]P[Ac5c][NMeGly(cPent)][NMeD]-{3Oxa8azabicyclo(3.2.1)octane}; lactam N-11)	22.1	
CCCC[C@@H]1NC(=O)[C@H](CCc2ccc(C(F)(F)F)c(Cl)c2)NC(=O)CN(C)C(=O)[C@H](Cc2ccc(C)cc2)N(CC)C(=O)CN(C)C(=O)CN(C)C(=O)[C@H]([C@@H](C)CC)NC(=O)[C@H](CC(C)C)N(C)C(=O)C[C@@H](C(=O)N2CCCCC2)N(C)C(=O)[C@H](CC(C)C)NC(=O)C(C)(C)N(C)C1=O [PP0050] ([NMeL]I[Sar][Sar][NEtPhe(4-Me)][Sar][hPhe(3-Cl-4-CF3)][Nle][NMeAib]L[NMeD]-Piperidide; lactam N-11)		IC50 [1]: 499 nM

More lines, main results first:

IC50 [nM]	SMILES	also measured
71.9	CCCOC[C@H]1C(=O)N[C@@H]([C@@H](C)OCC)C(=O)N(C)CC(=O)N(C)[C@H]2C/C=C\CCN(C2=O)[C@@H](Cc2ccc(C)cc2)C(=O)N(C)CC(=O)N[C@@H](CCc2ccc(C(F)(F)F)c(OC)c2)C(=O)N2C[C@@H](C)C[C@H]2C(=O)NC2(CC(C)(C)C2)C(=O)N(C)[C@@H](C2CCCC2)C(=O)N(C)[C@H](C(=O)N(C)CC)CC(=O)N1C [PP2423]	
33.4	CC[C@H](C)[C@@H]1NC(=O)[C@H](COC)N(C)C(=O)C[C@@H](C(=O)N(C)C)N(C)C(=O)[C@H](C2CCCC2)N(C)C(=O)C2(CC(C)(C)C2)NC(=O)[C@@H]2C[C@@H](OC3CCCC3)CN2C(=O)[C@H](CCc2cc(F)c(C(F)(F)F)c(F)c2)NC(=O)CN(C)C(=O)[C@H](Cc2ccc(C)cc2)N2CC/C=C\C[C@@H](C2=O)N(C)C(=O)CN(C2CC2)C1=O [PP2626]	

Source: US20240158446A1, “CYCLIC COMPOUND HAVING SELECTIVE INHIBITORY ACTION ON KRAS OVER HRAS AND NRAS” (CHUGAI SEIYAKU KABUSHIKI KAISHA, priority 2021, published 2024)
